Test results published in patent US9139587B2, “N1-pyrazolospiroketone acetyl-CoA carboxylase inhibitors” (Pfizer Inc., priority 2009, dated 2015).

Key:
[1] = molecular target: T1, recombinant human ACC1 (rhACC1) (Homo sapiens, UniProt Q13085, DEL44-44); experiment: recombinant hACC1 Transcreener assay (direct inhibition of ACC1 activity); type: biochemical; settings: Transcreener ADP detection FP assay, 50 μM ATP, 30 μM acetyl-CoA, 120 min at 25° C.
T1 construct: recombinant baculovirus containing full length human ACC1 cDNA; made in house; host or cells: SF9 insect cells (baculovirus)
Method in brief: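 Full-length human ACC1 from baculovirus-infected SF9 cells, dephosphorylated with lambda phosphatase. Reaction in 50 mM HEPES pH 7.2 with 30 μM acetyl-CoA, 50 μM ATP, 10 mM KHCO3, 120 min at 25° C; ADP detected by Transcreener fluorescence polarisation.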

[2] = molecular target: T2, recombinant human ACC2 (rhACC2) (Homo sapiens, UniProt O00763, V2141I); experiment: recombinant hACC2 Transcreener assay (direct inhibition of ACC2 activity); type: biochemical; settings: Transcreener ADP detection FP assay, 50 μM ATP, 30 μM acetyl-CoA, 50 min at 25° C.
T2 construct: a full length Cytomax clone of ACC2 was purchased from Cambridge Bioscience Limited; made in house; host or cells: CHO cells (tetracycline-induced, pcDNA5 FRT TO-TOPO)
T2 sequence (O00763 whole entry V2141I): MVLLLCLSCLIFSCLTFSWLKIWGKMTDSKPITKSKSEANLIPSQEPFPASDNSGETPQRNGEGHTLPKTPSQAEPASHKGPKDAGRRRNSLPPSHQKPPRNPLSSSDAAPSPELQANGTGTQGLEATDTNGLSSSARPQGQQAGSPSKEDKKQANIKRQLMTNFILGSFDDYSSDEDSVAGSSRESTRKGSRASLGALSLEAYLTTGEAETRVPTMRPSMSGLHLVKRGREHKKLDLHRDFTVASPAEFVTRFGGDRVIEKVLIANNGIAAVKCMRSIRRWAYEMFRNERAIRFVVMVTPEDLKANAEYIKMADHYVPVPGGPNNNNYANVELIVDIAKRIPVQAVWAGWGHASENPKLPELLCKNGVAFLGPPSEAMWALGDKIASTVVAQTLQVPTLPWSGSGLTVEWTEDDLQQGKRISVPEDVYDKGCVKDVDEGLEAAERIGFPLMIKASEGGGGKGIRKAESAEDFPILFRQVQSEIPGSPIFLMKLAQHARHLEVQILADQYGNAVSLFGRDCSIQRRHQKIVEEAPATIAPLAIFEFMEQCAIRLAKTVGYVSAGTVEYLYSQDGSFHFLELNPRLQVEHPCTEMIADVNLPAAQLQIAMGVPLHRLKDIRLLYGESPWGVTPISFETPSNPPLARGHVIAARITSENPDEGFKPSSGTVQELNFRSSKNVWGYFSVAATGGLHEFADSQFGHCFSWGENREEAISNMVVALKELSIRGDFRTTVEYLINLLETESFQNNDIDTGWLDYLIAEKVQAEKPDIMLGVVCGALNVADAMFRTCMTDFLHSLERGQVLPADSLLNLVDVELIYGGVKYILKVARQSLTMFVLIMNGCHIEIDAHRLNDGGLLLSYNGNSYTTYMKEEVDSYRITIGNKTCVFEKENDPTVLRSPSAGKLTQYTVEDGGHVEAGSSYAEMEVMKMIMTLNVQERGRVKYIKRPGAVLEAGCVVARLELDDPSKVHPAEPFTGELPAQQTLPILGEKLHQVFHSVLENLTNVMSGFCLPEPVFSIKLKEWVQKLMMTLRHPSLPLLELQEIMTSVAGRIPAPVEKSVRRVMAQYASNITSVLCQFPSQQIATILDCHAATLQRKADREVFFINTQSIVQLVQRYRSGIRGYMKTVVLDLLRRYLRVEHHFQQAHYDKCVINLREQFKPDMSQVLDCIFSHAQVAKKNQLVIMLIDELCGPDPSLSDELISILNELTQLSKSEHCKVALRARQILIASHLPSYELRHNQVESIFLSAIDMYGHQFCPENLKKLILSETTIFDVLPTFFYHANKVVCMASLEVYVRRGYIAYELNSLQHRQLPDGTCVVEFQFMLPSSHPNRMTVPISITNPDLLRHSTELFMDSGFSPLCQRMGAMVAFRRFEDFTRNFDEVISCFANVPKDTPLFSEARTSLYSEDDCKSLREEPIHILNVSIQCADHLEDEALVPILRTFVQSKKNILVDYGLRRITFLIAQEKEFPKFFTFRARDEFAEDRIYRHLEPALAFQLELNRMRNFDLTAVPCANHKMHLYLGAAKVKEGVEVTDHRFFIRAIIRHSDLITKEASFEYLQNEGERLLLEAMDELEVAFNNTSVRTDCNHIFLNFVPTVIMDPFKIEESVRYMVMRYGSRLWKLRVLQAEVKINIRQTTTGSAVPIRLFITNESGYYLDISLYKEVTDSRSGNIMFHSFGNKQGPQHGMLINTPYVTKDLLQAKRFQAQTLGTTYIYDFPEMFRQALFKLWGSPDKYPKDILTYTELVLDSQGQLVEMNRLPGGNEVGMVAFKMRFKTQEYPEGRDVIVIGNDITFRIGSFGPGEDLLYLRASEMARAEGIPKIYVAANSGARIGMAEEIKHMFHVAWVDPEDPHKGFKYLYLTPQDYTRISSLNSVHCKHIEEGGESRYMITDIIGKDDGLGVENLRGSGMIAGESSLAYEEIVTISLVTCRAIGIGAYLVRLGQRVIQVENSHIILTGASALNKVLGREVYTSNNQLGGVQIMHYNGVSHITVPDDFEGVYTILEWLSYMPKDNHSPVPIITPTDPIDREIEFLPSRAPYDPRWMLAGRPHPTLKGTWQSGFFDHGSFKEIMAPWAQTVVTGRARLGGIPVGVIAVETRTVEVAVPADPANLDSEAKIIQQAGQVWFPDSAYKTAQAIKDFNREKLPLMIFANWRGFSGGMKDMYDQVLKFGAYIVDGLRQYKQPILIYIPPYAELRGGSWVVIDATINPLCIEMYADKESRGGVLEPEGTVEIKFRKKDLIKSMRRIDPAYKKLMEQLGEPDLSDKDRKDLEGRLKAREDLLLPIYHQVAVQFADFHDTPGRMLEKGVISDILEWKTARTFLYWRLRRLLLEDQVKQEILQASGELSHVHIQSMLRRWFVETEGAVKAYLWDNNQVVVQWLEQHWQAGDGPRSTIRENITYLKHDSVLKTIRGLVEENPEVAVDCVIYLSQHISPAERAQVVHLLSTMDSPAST
Method in brief: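 Full-length human ACC2 was expressed in CHO cells and avidin-purified. ADP formation was measured by Transcreener FP in 50 mM HEPES pH 7.2 with 30 μM acetyl-CoA, 50 μM ATP, 8 mM KHCO3 and 5 mM citrate. Reactions ran 50 min at 25 °C with 1% DMSO, then 1 h with stop/detect reagent.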

| IC50 [1] | IC50 [2] | SMILES |
| --- | --- | --- |
| 1860 nM | 1040 nM | Cn1ncc2c(=O)c(C(=O)N3CCC4(CC3)CC(=O)c3c(cnn3C(C)(C)C)C4)c[nH]c21 [Example 11A-70] |
| 867 nM | 153 nM | CC(C)(C)n1ncc2c1C(=O)CC1(CCN(C(=O)c3ccc(-n4cncn4)cc3)CC1)C2 [Example 11A-72] |
| 37.4 nM | 37.4 nM | CC(C)(C)n1ncc2c1C(=O)CC1(CCN(C(=O)c3cc4ccncc4[nH]3)CC1)C2 [Example 11A-73] |
| 23.7 nM | 16.8 nM | CC(C)(C)n1ncc2c1C(=O)CC1(CCN(C(=O)c3ccc4cn[nH]c4c3)CC1)C2 [Example 11A-74] |
| 39.5 nM | 67.3 nM | CC(C)(C)n1ncc2c1C(=O)CC1(CCN(C(=O)c3cc4cccnc4[nH]3)CC1)C2 [Example 12A-1, 1-tert-butyl-1′-(1H-pyrrolo[2,3-b]pyridine-2-carbonyl)-4,6-dihydrospiro[indazole-5,4′-piperidin]-7(1H)-one] |
| 264 nM | 316 nM | CC(C)(C)n1nc(Br)c2c1C(=O)CC1(CCN(C(=O)c3cc(Br)c4[nH]c(=O)[nH]c4c3)CC1)C2 [Example 13A-1, 3-bromo-1′-(7-bromo-2-oxo-2,3-dihydro-1H-benzo[d]imidazole-5-carbonyl)-1-tert-butyl-4,6-dihydrospiro[indazole-5,4′-piperidin]-7(1H)-one] |
